Several values for one entry are separate records, joined by “and”; a condition that tells them apart may be missing. Identical values can stand only once. Like-named read-outs stand apart in the source and are kept apart here.
Test: Comparative bioavailability study, curcumin in plasma by HPLC
Type: in vivo, human
Conditions: for Mean plasma concentration: listed as Curcumin Powder 95%
Experimental: The bioavailability study was conducted at Amala Cancer Institute, Thrissur, Kerala on a request from the applicant. Twelve healthy subjects were recruited for the purpose of the study. […] The study design chosen was a balanced, open label, two-treatment, two-period, single dose, bioavailability study.
12 Subject were recruited for the study and were asked to avoid consumption of food containing rich turmeric powder or extract for 24 hours preceding each period. […] The following supplements were used for the purpose of the study:
Each of the supplements were administered with 240 ml water in each period.
The study design is open label, two-treatment, two-period, single dose, bioavailability study. […] Subjects were asked to avoid consumption of food containing rich turmeric powder or extract for 24 hours preceding each period. […] There was a washout period of at least 2 weeks between the doses.
Blood was drawn from each subject just prior to dosing and at 1, 2, 4, 6, 8, and 24 hours post-dose. The total blood loss for each subject was approximately 70 ml and there were totally 14 blood samples of 5 ml each time point throughout the study.
The primary efficacy variables were measured in this study were Cmax, AUCO-t and AUCO-∞ and the secondary efficacy variable were as follows Tmax, T½ and Kel. The statistical evaluation was done by Winnonlin Software 5.0.1 version. […] Tmax and T½ were also be recorded and compared for the two products.
Preparation of Sample (Spiked with Standard Solution E): The frozen plasma samples were allowed to attain the room temperature. 1000 μl of the plasma sample was pipetted out and spiked with 100 μl of spiking standard solution E. This solution was vortex for 1 minute and 3.0 ml ethyl acetate (HPLC Grade) was added to the above solutions. The solution was vortex again for 1 minute with the aid of cyclomixer and allowed to settle down at room temperature.
1.5 ml of the upper ethyl acetate layer was pipetted out and evaporated to dryness using vacuum. The dried sample was dissolved in 600 μl of methanol (HPLC Grade) using vortex mixer. This solution was filtered by 0.2 micron membrane filter paper. 100 μl of these filtered solution was injected in HPLC (Waters Alliance System with 2996 PDA detector in isocratic mode). The column used was LiChrospher 100 RP-18 (250×4.6 mm 5 μM particle size) with methanol as the mobile phase and the detection wavelength was 420 nm. To identify and quantized curcuminoids in plasma the chromatographic peaks were compared with standard solution.

[1] = individual subjects, 1 gm curcuminoids oral, listed as Curcumin Extract Powder (min 95% Curcuminoids)

Structure (SMILES): COc1cc(C=CC(=O)CC(=O)C=Cc2ccc(O)c(OC)c2)ccc1O [Curcumin, 1,7-bis(4-hydroxy-3-methoxyphenyl)-1,6-heptadien-3,5-dione]
- AUCINF, Max (1 gm curcuminoids oral): 87.74 ng·h/mL
- AUCINF, Min (1 gm curcuminoids oral): 76.09 ng·h/mL
- AUCT, Max (1 gm curcuminoids oral): 198.27 ng·h/mL
- AUCT, Min (1 gm curcuminoids oral): 31.24 ng·h/mL
- Cmax, Max (1 gm curcuminoids oral): 36.11 ng/mL
- Cmax, Min (1 gm curcuminoids oral): 2.48 ng/mL
- Thalf, Geometric Mean (1 gm curcuminoids oral): 7.066 h
- Thalf, Max (1 gm curcuminoids oral): 11.39 h
- Thalf, Mean (1 gm curcuminoids oral): 7.516 h
- Thalf, Median (1 gm curcuminoids oral): 5.95 h
- Thalf, Min (1 gm curcuminoids oral): 5.21 h
- Tmax, Max (1 gm curcuminoids oral): 24.00 h
- Tmax, Min (1 gm curcuminoids oral): 1.00 h
- AUCINF, Mean (mean AUC) (1 gm curcuminoids oral, listed as Curcumin Extract Powder (min 95% Curcuminoids)): 80.433 ng·h/mL
- AUC(0-inf) (human, plasma, po, 1 gm, 1 gm curcuminoids oral, read-out: AUCINF, Geometric Mean): 80.3 ng·h/mL
- AUC(0-inf) (human, plasma, po, 1 gm, 1 gm curcuminoids oral, read-out: AUCINF, Mean (mean AUC)): 80.4 ng·h/mL
- AUC(0-inf) (human, plasma, po, 1 gm, 1 gm curcuminoids oral, read-out: AUCINF, Median): 77.5 ng·h/mL
- AUC(0-t) (human, plasma, po, 1 gm, 1 gm curcuminoids oral, read-out: AUCT, Geometric Mean): 81 ng·h/mL
- AUC(0-t) (human, plasma, po, 1 gm, 1 gm curcuminoids oral, read-out: AUCT, Mean): 98.8 ng·h/mL
- AUC(0-t) (human, plasma, po, 1 gm, 1 gm curcuminoids oral, read-out: AUCT, Median): 77.8 ng·h/mL
- Cmax (human, plasma, po, 1 gm, 1 gm curcuminoids oral, read-out: Cmax, Geometric Mean): 10.5 ng/mL
- Cmax (human, plasma, po, 1 gm, 1 gm curcuminoids oral, read-out: Cmax, Mean): 13.3 ng/mL
- Cmax (human, plasma, po, 1 gm, 1 gm curcuminoids oral, read-out: Cmax, Median): 10.3 ng/mL
- Tmax (human, plasma, po, 1 gm, 1 gm curcuminoids oral, read-out: Tmax, Geometric Mean): 4.06 h
- Tmax (human, plasma, po, 1 gm, 1 gm curcuminoids oral, read-out: Tmax, Mean): 8.25 h
- Tmax (human, plasma, po, 1 gm, 1 gm curcuminoids oral, read-out: Tmax, Median): 3 h
- AUC(0-inf) (human, plasma, po, 1 gm, individual subjects, 1 gm curcuminoids oral, read-out: AUCINF): 76.1 ng·h/mL
- concentration at 0 hr (human, plasma, po, 1 gm, time 0 hr (prior to dosing), 1 gm curcuminoids oral, read-out: Mean plasma concentration): 0 ng/mL
- concentration at 0 hr (human, plasma, po, 1 gm, time 0.00 hr (prior to dosing), individual subjects, single oral dose equivalent to 1 gm curcuminoids, read-out: Individual plasma concentration): 0 ng/mL
- concentration at 0 hr (human, plasma, po, 1 gm, time 0 hr, 1 gm curcuminoids oral, read-out: Geometric Mean plasma concentration): 0 ng/mL
- concentration at 0 hr (human, plasma, po, 1 gm, time 0 hr, 1 gm curcuminoids oral, read-out: Max plasma concentration): 0 ng/mL
- concentration at 0 hr (human, plasma, po, 1 gm, time 0 hr, 1 gm curcuminoids oral, read-out: Median plasma concentration): 0 ng/mL
- concentration at 0 hr (human, plasma, po, 1 gm, time 0 hr, 1 gm curcuminoids oral, read-out: Min plasma concentration): 0 ng/mL
- concentration at 1 hr (human, plasma, po, 1 gm, time 1 hr, 1 gm curcuminoids oral, read-out: Geometric Mean plasma concentration): 1.58 ng/mL
- concentration at 1 hr (human, plasma, po, 1 gm, time 1 hr, 1 gm curcuminoids oral, read-out: Max plasma concentration): 20.6 ng/mL
- concentration at 1 hr (human, plasma, po, 1 gm, time 1 hr, 1 gm curcuminoids oral, read-out: Mean plasma concentration): 5.46 ng/mL
- concentration at 1 hr (human, plasma, po, 1 gm, time 1 hr, 1 gm curcuminoids oral, read-out: Median plasma concentration): 1.66 ng/mL
- concentration at 1 hr (human, plasma, po, 1 gm, time 1 hr, 1 gm curcuminoids oral, read-out: Min plasma concentration): 0.05 ng/mL
- concentration at 2 hr (human, plasma, po, 1 gm, time 2 hr, 1 gm curcuminoids oral, read-out: Geometric Mean plasma concentration): 13.5 ng/mL
- concentration at 2 hr (human, plasma, po, 1 gm, time 2 hr, 1 gm curcuminoids oral, read-out: Max plasma concentration): 19.8 ng/mL
- concentration at 2 hr (human, plasma, po, 1 gm, time 2 hr, 1 gm curcuminoids oral, read-out: Mean plasma concentration): 14.4 ng/mL
- concentration at 2 hr (human, plasma, po, 1 gm, time 2 hr, 1 gm curcuminoids oral, read-out: Median plasma concentration): 14.9 ng/mL
- concentration at 2 hr (human, plasma, po, 1 gm, time 2 hr, 1 gm curcuminoids oral, read-out: Min plasma concentration): 8.39 ng/mL
- concentration at 4 hr (human, plasma, po, 1 gm, time 4 hr, 1 gm curcuminoids oral, read-out: Geometric Mean plasma concentration): 4.89 ng/mL
- concentration at 4 hr (human, plasma, po, 1 gm, time 4 hr, 1 gm curcuminoids oral, read-out: Max plasma concentration): 15.6 ng/mL
- concentration at 4 hr (human, plasma, po, 1 gm, time 4 hr, 1 gm curcuminoids oral, read-out: Mean plasma concentration): 7.07 ng/mL
- concentration at 4 hr (human, plasma, po, 1 gm, time 4 hr, 1 gm curcuminoids oral, read-out: Median plasma concentration): 7.09 ng/mL
- concentration at 4 hr (human, plasma, po, 1 gm, time 4 hr, 1 gm curcuminoids oral, read-out: Min plasma concentration): 0.75 ng/mL
- concentration at 6 hr (human, plasma, po, 1 gm, time 6 hr, 1 gm curcuminoids oral, read-out: Geometric Mean plasma concentration): 3.03 ng/mL
- concentration at 6 hr (human, plasma, po, 1 gm, time 6 hr, 1 gm curcuminoids oral, read-out: Max plasma concentration): 4.87 ng/mL
- concentration at 6 hr (human, plasma, po, 1 gm, time 6 hr, 1 gm curcuminoids oral, read-out: Mean plasma concentration): 3.23 ng/mL
- concentration at 6 hr (human, plasma, po, 1 gm, time 6 hr, 1 gm curcuminoids oral, read-out: Median plasma concentration): 2.77 ng/mL
- concentration at 6 hr (human, plasma, po, 1 gm, time 6 hr, 1 gm curcuminoids oral, read-out: Min plasma concentration): 2.05 ng/mL
- concentration at 8 hr (human, plasma, po, 1 gm, time 8 hr, 1 gm curcuminoids oral, read-out: Geometric Mean plasma concentration): 6.56 ng/mL
- concentration at 8 hr (human, plasma, po, 1 gm, time 8 hr, 1 gm curcuminoids oral, read-out: Max plasma concentration): 36.1 ng/mL
- concentration at 8 hr (human, plasma, po, 1 gm, time 8 hr, 1 gm curcuminoids oral, read-out: Mean plasma concentration): 18.6 ng/mL
- concentration at 8 hr (human, plasma, po, 1 gm, time 8 hr, 1 gm curcuminoids oral, read-out: Median plasma concentration): 18.6 ng/mL
- concentration at 8 hr (human, plasma, po, 1 gm, time 8 hr, 1 gm curcuminoids oral, read-out: Min plasma concentration): 1.19 ng/mL
- concentration at 24 hr (human, plasma, po, 1 gm, time 24 hr, 1 gm curcuminoids oral, read-out: Geometric Mean plasma concentration): 2.23 ng/mL
- concentration at 24 hr (human, plasma, po, 1 gm, time 24 hr, 1 gm curcuminoids oral, read-out: Max plasma concentration): 11.5 ng/mL
- concentration at 24 hr (human, plasma, po, 1 gm, time 24 hr, 1 gm curcuminoids oral, read-out: Mean plasma concentration): 4.27 ng/mL
- concentration at 24 hr (human, plasma, po, 1 gm, time 24 hr, 1 gm curcuminoids oral, read-out: Median plasma concentration): 1.93 ng/mL
- concentration at 24 hr (human, plasma, po, 1 gm, time 24 hr, 1 gm curcuminoids oral, read-out: Min plasma concentration): 0.53 ng/mL
- AUCINF [1]: 87.74 ng·h/mL and 77.46 ng·h/mL
- AUCT [1]: 38.31 ng·h/mL and 53.25 ng·h/mL and 31.24 ng·h/mL and 82.17 ng·h/mL and 175.60 ng·h/mL and 137.89 ng·h/mL and 198.27 ng·h/mL and 73.46 ng·h/mL
- Cmax [1]: 2.48 ng/mL and 7.99 ng/mL and 15.62 ng/mL and 8.39 ng/mL and 9.09 ng/mL and 11.49 ng/mL and 36.11 ng/mL and 14.94 ng/mL
- Thalf [1]: 11.39 h and 5.95 h and 5.21 h
- Tmax [1]: 1.00 h and 4.00 h and 2.00 h and 24.00 h and 8.00 h
- Mean plasma concentration (time 0 hr (prior to dosing), 1 gm curcuminoids oral): 0.0000 ng/mL
- Individual plasma concentration (time 0.00 hr (prior to dosing), individual subjects, single oral dose equivalent to 1 gm curcuminoids): 0.00 ng/mL
- Mean plasma concentration (time 1 hr, 1 gm curcuminoids oral): 5.4638 ng/mL
- Individual plasma concentration (time 1.00 hr, individual subjects, single oral dose equivalent to 1 gm curcuminoids, listed as Curcumin Extract Powder 95%): 2.48 ng/mL and 7.99 ng/mL and 0.84 ng/mL and 0.05 ng/mL and 20.58 ng/mL and 0.85 ng/mL
- Mean plasma concentration (time 2 hr, 1 gm curcuminoids oral): 14.3842 ng/mL
- Individual plasma concentration (time 2.00 hr, individual subjects, single oral dose equivalent to 1 gm curcuminoids, listed as Curcumin Extract Powder 95%): 8.39 ng/mL and 19.82 ng/mL and 14.94 ng/mL
- Mean plasma concentration (time 4 hr, 1 gm curcuminoids oral): 7.0711 ng/mL
- Individual plasma concentration (time 4.00 hr, individual subjects, single oral dose equivalent to 1 gm curcuminoids, listed as Curcumin Extract Powder 95%): 0.75 ng/mL and 4.53 ng/mL and 15.62 ng/mL and 7.09 ng/mL and 7.36 ng/mL
- Mean plasma concentration (time 6 hr, 1 gm curcuminoids oral): 3.2316 ng/mL
- Individual plasma concentration (time 6.00 hr, individual subjects, single oral dose equivalent to 1 gm curcuminoids, listed as Curcumin Extract Powder 95%): 2.05 ng/mL and 4.87 ng/mL and 2.77 ng/mL
- Mean plasma concentration (time 8 hr, 1 gm curcuminoids oral): 18.6496 ng/mL
- Individual plasma concentration (time 8.00 hr, individual subjects, single oral dose equivalent to 1 gm curcuminoids, listed as Curcumin Extract Powder 95%): 1.19 ng/mL and 36.11 ng/mL
- Mean plasma concentration (time 24 hr, 1 gm curcuminoids oral): 4.2698 ng/mL
- Individual plasma concentration (time 24.00 hr, individual subjects, single oral dose equivalent to 1 gm curcuminoids, listed as Curcumin Extract Powder 95%): 2.47 ng/mL and 1.39 ng/mL and 0.65 ng/mL and 9.09 ng/mL and 11.49 ng/mL and 0.53 ng/mL

Reference: patent US9259401B2 (priority 2011, dated 2016)
